# Experimental data reported in patent EP1042293B9, “SUBSTITUTED PYRIDINE AND PYRIDAZINE COMPOUNDS AND THEIR PHARMACEUTICAL USE” (AMGEN INC., priority 1997, dated 1999).
# Tested on: TNF production by monocytes activated with bacterial lipopolysaccharide (LPS)
# Assay: Lipopolysaccharide-activated monocyte TNF production assay
# Type: cell-based
# Conditions: Homo sapiens, 4 h, adherent PBMC-derived monocytes, LPS from E. coli, TNF in supernatant by ELISA, read-out: IC50 values in the monocyte assay (LPS induced TNF release)
# Experimental: Test compounds were evaluated in vitro for the ability to inhibit the production of TNF by monocytes activated with bacterial lipopolysaccharide (LPS). Fresh residual source leukocytes (a byproduct of plateletpheresis) were obtained from a local blood bank, and peripheral blood mononuclear cells (PBMCs) were isolated by density gradient centrifugation on Ficol-Paque Plus (Pharmacia). PBMCs were suspended at […] /ml in DMEM supplemented to contain 2% FCS, 10 mM, 0.3 mg/ml glutamate, 100 U/ml penicillin G and […] streptomycin sulfate (complete media). Cells were plated into Falcon flat bottom, 96 well culture plates (200 µl/well) and cultured overnight at 37°C and 6% CO2. Non-adherent cells were removed by washing with 200 µl/well of fresh medium. Wells containing adherent cells (~70% monocytes) were replenished with 100 µl of fresh medium.
# Test compounds were dissolved in […]. Compound stock solutions were prepared to an initial concentration of […]. Stocks were diluted initially to 20 - 200 µM in complete media. Nine twofold serial dilutions of each compound were then prepared in complete medium.
# One hundred microliters of each test compound dilution were added to microtiter wells containing adherent monocytes and 100 µl complete medium. Monocytes were cultured with test compounds for 60 min at which time 25 µl of complete medium containing 30 ng/ml lipopolysaccharide from E. coli K532 were added to each well. Cells were cultured an additional 4 hrs. Culture supernatants were then removed and TNF presence in the supernatants was quantified using an ELISA.
# Flat bottom, 96 well Corning High Binding ELISA plates were coated overnight (4°C) with 150 µL/well of 3 µg/ml murine anti-human TNF-α MAb (R&D Systems #MAB210). […]
# Standard curve data were fit to a second order polynomial and unknown TNF-α concentrations determined from their OD by solving this equation for concentration. […]
structure (smiles),measurement,value
"Cc1cccc(-c2cc(OC[C@@H](N)Cc3ccccc3)ncc2-c2ccncc2)c1 [Example 14, 2-((S)-2-amino-3-phenylpropoxy)-4-(3-methylphenyl)-5-(4-pyridyl)pyridine]",IC50,≤ 20 µM
"Cc1cccc(-c2cc(OCCCc3ccccc3)ncc2-c2ccncc2)c1 [Example 18, 2-(3-phenylpropoxy)-4-(3-methylphenyl)-5-(4-pyridyl)pyridine]",IC50,≤ 20 µM
"Cc1cccc(-c2cc(=O)n(CCCc3ccccc3)cc2-c2ccncc2)c1 [Example 19, 1-(3-phenylpropyl)-4-(3-methylphenyl)-5-(4-pyridyl)-1H-pyrid-2-one]",IC50,≤ 20 µM
